Data taken from US20260027116A1, “Methods of Treating Chronic Graft-Versus-Host Disease Following Allogeneic Hematopoietic Stem Cell Transplantation” (Kadmon Corporation, LLC, priority 2022, published 2026).

Experiments:
CYP2D6 = CYP2D6 (Homo sapiens, UniProt P10635); test: metabolism in vitro; type: in vitro ADME
[1] = system: chronic graft-versus-host disease (cGVHD); test: Example 1 phase IIa study: response per 2014 NIH cGVHD criteria (ORR, BOR, DOR, TTR, TTNT, FFS, OS, organ response); type: in vivo, human; conditions: for DOR, median (95% CI) / TTR, median: responder population
Description: Eligible patients were allogeneic bone marrow transplant or allogeneic hematopoietic cell transplant (alloHCT) recipients of age≥18 years with persistent cGVHD manifestations after having received one to three prior systemic lines of therapy and who were receiving corticosteroid treatment with or without a calcincurin inhibitor and/or concurrent extracorporeal photopheresis.
Inclusion criteria. Adult male and female subjects at least 18 years of age who had allogenic bone marrow transplant or hematopoietic stem cell transplantation. Received glucocorticoid therapy and calcineurin therapy or glucocorticoid therapy alone for cGVHD at study entry. Participants on calcineurin therapy only, without glucocorticoid therapy, were not eligible. Participants also received other therapies thought not to be immunosuppressive (such as extracorporeal photopheresis; ECP), were considered for enrollment in this study on a case-by-case basis. […] No more than 3 prior lines of treatment for cGVHD. Karnofsky Performance Scale of greater than (>) 40.
Exclusion Criteria. Participant who was pregnant or breastfeeding. Received an investigational GVHD treatment within 28 days of study entry. Had acute GVHD. Taken any medication known to be a moderate or strong inhibitor of the cytochrome (CY) P3A4 isozyme or any drugs that are moderate or strong CYP3A4 inducers. History or other evidence of severe illness or any other conditions that would make the participant, in the opinion of the investigator, unsuitable for the study (such as poorly controlled psychiatric disease or coronary artery disease). Regular and excessive use of alcohol within the 6 months prior to study entry defined as alcohol intake>14 drinks per week in a man or >7 drinks per week in a woman. Approximately 10 grams of alcohol equals one “drink” unit. One unit equals 1 ounce of distilled spirits, one 12-ounce beer, or one 4-ounce glass of wine. Known history of human immunodeficiency virus or active hepatitis C virus or hepatitis B virus. Diagnosed with another malignancy (other than malignancy for which transplant was performed) within 3 years of enrollment, with the exception of completely resected basal cell or squamous cell carcinoma of the skin, resected in situ cervical malignancy, resected breast ductal carcinoma in situ, or low-risk prostate cancer after curative resection. Relapse of the underlying cancer or post-transplant lymphoproliferative disease at the time of screening. […] Taken other immunosuppressant drugs for GVHD, including mammalian target of rapamycin inhibitors (Note: Only steroids, calcineurin inhibitors, and ECP are acceptable). Corrected QT interval using Fridericia's formula >450 milliseconds.
(FIG. 1) Before enrollment of the subsequent cohort, safety data in each previous cohort were analyzed after eight patients reached two months of treatment to assure that there was no safety signal. […] No safety concerns were identified, allowing for planned dose escalation.
Progression was defined per the 2014 NIH cGVHD Consensus Criteria. Long-term follow-up was conducted every 8 weeks until study closeout. […] Screening was conducted within 28 days of the first study dose. Response was initially assessed after two cycles; however, this was amended to evaluate response on day 1 of each cycle, starting at cycle 2 day 1.
All responses were assessed by the investigators.
Assuming a best ORR of 25%, which was determined to be clinically meaningful, the study was expected to have approximately 90% probability to show a response in ≥2 patients per cohort. This study was not powered to show significant differences between cohorts with respect to efficacy, AEs, or PD analyses. The primary analysis was conducted using the safety population, defined as enrolled patients who received ≥1 dose of study medication. The Clopper-Pearson (exact) method was used to construct the two-sided 95% CI for ORR. The Kaplan-Meier (K-M) method was used to calculate estimates of FFS and OS. […]

CYP2D6, sequence (P10635 whole entry): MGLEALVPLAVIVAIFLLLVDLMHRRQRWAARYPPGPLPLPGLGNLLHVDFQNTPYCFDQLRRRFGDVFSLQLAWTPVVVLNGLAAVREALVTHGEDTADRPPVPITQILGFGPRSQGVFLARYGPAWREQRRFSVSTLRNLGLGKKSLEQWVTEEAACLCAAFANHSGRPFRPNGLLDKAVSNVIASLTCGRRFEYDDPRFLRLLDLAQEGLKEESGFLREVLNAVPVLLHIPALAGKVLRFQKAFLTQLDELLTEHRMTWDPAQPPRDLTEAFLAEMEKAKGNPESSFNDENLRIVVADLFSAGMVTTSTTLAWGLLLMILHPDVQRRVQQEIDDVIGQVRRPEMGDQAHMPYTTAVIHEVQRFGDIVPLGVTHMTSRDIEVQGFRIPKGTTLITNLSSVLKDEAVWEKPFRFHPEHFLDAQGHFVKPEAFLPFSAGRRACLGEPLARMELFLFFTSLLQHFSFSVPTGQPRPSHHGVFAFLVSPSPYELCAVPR

CC(C)NC(=O)COc1cccc(-c2nc(Nc3ccc4[nH]ncc4c3)c3ccccc3n2)c1 [Belumosudil, 2-{3-[4-(1H-indazol-5-ylamino)-2-quinazolinyl]phenoxy}-N-(propan-2-yl) acetamide]
metabolism by CYP2D6 (CYP2D6): to a lesser extent | BOR CR, participants (%) ([1]; Cohort 1 200 mg QD): 0 (0%) participants | BOR LOR-M, participants (%) ([1]; Cohort 1 200 mg QD): 2 (12%) participants | BOR LOR-P, participants (%) ([1]; Cohort 1 200 mg QD): 2 (12%) participants | BOR LOR-U, participants (%) ([1]; Cohort 1 200 mg QD): 2 (12%) participants | BOR PR, participants (%) ([1]; Cohort 1 200 mg QD): 11 (65%) participants | FFS, median (95% CI) ([1]; Cohort 1 200 mg QD): 11 (4-na* %) months | ORR subgroup refractory to previous LOT, n/N ([1]; Cohort 1 200 mg QD): 7/11 | ORR subgroup severe cGVHD, n/N ([1]; Cohort 1 200 mg QD): 8/12 | ORR subgroup ≤2 prior LOTs, n/N ([1]; Cohort 1 200 mg QD): 10/15 | ORR subgroup ≤4 organs involved, n/N ([1]; Cohort 1 200 mg QD): 4/8 | ORR, % (95% CI) ([1]; Cohort 1 200 mg QD): 65% | TTNT, median (95% CI) ([1]; Cohort 1 200 mg QD): 15 (5-NA* %) months | best response (CR or PR) in Skin, percentage of participants ([1]; Cohort 1 200 mg QD): (23%) | best response in Esophagus, percentage of participants ([1]; Cohort 1 200 mg QD): (50%) | best response in Eyes, percentage of participants ([1]; Cohort 1 200 mg QD): (36%) | best response in Joints and Fascia, percentage of participants ([1]; Cohort 1 200 mg QD): (55%) | best response in Lower GI tract, percentage of participants ([1]; Cohort 1 200 mg QD): (0%) | best response in Lungs, percentage of participants ([1]; Cohort 1 200 mg QD): (0%) | best response in Mouth, percentage of participants ([1]; Cohort 1 200 mg QD): (46%) | best response in Upper GI tract, percentage of participants ([1]; Cohort 1 200 mg QD): (100%) | DOR, median (95% CI) ([1]; Cohort 1, 200 mg QD): 40 (8-na* %) weeks | TTR, median ([1]; Cohort 1, 200 mg QD): 8.14 weeks | BOR CR, participants (%) ([1]; Cohort 2 200 mg BID): 0 (0%) participants | BOR LOR-M, participants (%) ([1]; Cohort 2 200 mg BID): 1 (6%) participants | BOR LOR-P, participants (%) ([1]; Cohort 2 200 mg BID): 1 (6%) participants | BOR LOR-U, participants (%) ([1]; Cohort 2 200 mg BID): 3 (19%) participants | BOR PR, participants (%) ([1]; Cohort 2 200 mg BID): 11 (69%) participants | FFS, median (95% CI) ([1]; Cohort 2 200 mg BID): 10 (4-19%) months | ORR subgroup refractory to previous LOT, n/N ([1]; Cohort 2 200 mg BID): 6/9 | ORR subgroup severe cGVHD, n/N ([1]; Cohort 2 200 mg BID): 9/14 | ORR subgroup ≤2 prior LOTs, n/N ([1]; Cohort 2 200 mg BID): 5/8 | ORR subgroup ≤4 organs involved, n/N ([1]; Cohort 2 200 mg BID): 8/10 | ORR, % (95% CI) ([1]; Cohort 2 200 mg BID): 69% | TTNT, median (95% CI) ([1]; Cohort 2 200 mg BID): 10 (4-19%) months | best response (CR or PR) in Skin, percentage of participants ([1]; Cohort 2 200 mg BID): (17%) | best response in Eyes, percentage of participants ([1]; Cohort 2 200 mg BID): (36%) | best response in Joints and Fascia, percentage of participants ([1]; Cohort 2 200 mg BID): (46%) | best response in Liver, percentage of participants ([1]; Cohort 2 200 mg BID): (50%) | best response in Lower GI tract, percentage of participants ([1]; Cohort 2 200 mg BID): (100%) | best response in Lungs, percentage of participants ([1]; Cohort 2 200 mg BID): (0%) | best response in Mouth, percentage of participants ([1]; Cohort 2 200 mg BID): (46%) | best response in Upper GI tract, percentage of participants ([1]; Cohort 2 200 mg BID): (100%) | DOR, median (95% CI) ([1]; Cohort 2, 200 mg BID): 11 (2-35%) weeks | TTR, median ([1]; Cohort 2, 200 mg BID): 8.14 weeks | BOR CR, participants (%) ([1]; Cohort 3 400 mg QD): 0 (0%) participants | BOR LOR-M, participants (%) ([1]; Cohort 3 400 mg QD): 0 (0%) participants | BOR LOR-P, participants (%) ([1]; Cohort 3 400 mg QD): 1 (5%) participants | BOR LOR-U, participants (%) ([1]; Cohort 3 400 mg QD): 4 (19%) participants | BOR PR, participants (%) ([1]; Cohort 3 400 mg QD): 12 (57%) participants | FFS, median (95% CI) ([1]; Cohort 3 400 mg QD): 10 (3-16%) months | ORR subgroup refractory to previous LOT, n/N ([1]; Cohort 3 400 mg QD): 9/15 | ORR subgroup severe cGVHD, n/N ([1]; Cohort 3 400 mg QD): 8/16 | ORR subgroup ≤2 prior LOTs, n/N ([1]; Cohort 3 400 mg QD): 8/12 | ORR subgroup ≤4 organs involved, n/N ([1]; Cohort 3 400 mg QD): 7/9 | ORR, % (95% CI) ([1]; Cohort 3 400 mg QD): 62% | TTNT, median (95% CI) ([1]; Cohort 3 400 mg QD): 14 (3-NA %) months | best response (CR or PR) in Skin, percentage of participants ([1]; Cohort 3 400 mg QD): (13%) | best response in Esophagus, percentage of participants ([1]; Cohort 3 400 mg QD): (25%) | best response in Eyes, percentage of participants ([1]; Cohort 3 400 mg QD): (24%) | best response in Joints and Fascia, percentage of participants ([1]; Cohort 3 400 mg QD): (42%) | best response in Lower GI tract, percentage of participants ([1]; Cohort 3 400 mg QD): (0%) | best response in Lungs, percentage of participants ([1]; Cohort 3 400 mg QD): (30%) | best response in Mouth, percentage of participants ([1]; Cohort 3 400 mg QD): (46%) | best response in Upper GI tract, percentage of participants ([1]; Cohort 3 400 mg QD): (50%) | DOR, median (95% CI) ([1]; Cohort 3, 400 mg QD): 16 (4-38%) weeks | TTR, median ([1]; Cohort 3, 400 mg QD): 8.07 weeks | 2-year OS rate ([1]; Example 1): 82% | 12-month FFS rate with response ([1]; Example 1): 24% | ORR among patients with nonsevere cGVHD ([1]; Example 1): 83% | median DOR across all responders ([1]; Example 1): 35 weeks | share of all responses achieved by first response assessment at week 8 ([1]; Example 1): > 75% | FFS rate ([1]; Example 1, at 6 months): 76% | FFS rate ([1]; Example 1, at 12 months): 47% | median TTNT ([1]; Example 1, pooled): 14 months | patients with progression in joints ([1]; Example 1, safety population (FIG. 3B)): 11 patients | ORR subgroup refractory to previous LOT, % (95% CI) ([1]; Total, N=54): 63% | ORR subgroup severe cGVHD, % (95% CI) ([1]; Total, N=54): 60% | ORR subgroup ≤2 prior LOTs, % (95% CI) ([1]; Total, N=54): 66% | ORR subgroup ≤4 organs involved, % (95% CI) ([1]; Total, N=54): 70% | ORR, % (95% CI) ([1]; Total, N=54): 65% | ORR subgroup refractory to previous LOT, n/N ([1]; Total, N=54, listed as KD025): 22/35 | ORR subgroup severe cGVHD, n/N ([1]; Total, N=54, listed as KD025): 25/42 | ORR subgroup ≤2 prior LOTs, n/N ([1]; Total, N=54, listed as KD025): 23/35 | ORR subgroup ≤4 organs involved, n/N ([1]; Total, N=54, listed as KD025): 19/27
